{"source": "paper PMC8037182", "about": "“Solvothermal Synthesis of Multiple Dihydropyrimidinones at a Time as Inhibitors of Eg5” (Molecules, 2021);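 on OD490 Mean: blank control wells received 0.025% DMSO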;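 on OD490 Well 1: blank control wells received 0.025% DMSO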;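 on OD490 Well 2: blank control wells received 0.025% DMSO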;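 on OD490 Well 3: blank control wells received 0.025% DMSO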", "key": {"L929 cell line": {"tested_on": "L929 cell line", "assay": "Cytotoxicity MTS assay, L929 cell line", "assay_type": "cell-based", "conditions": "for OD490 values, Mean / OD490 values, Well 1 / OD490 values, Well 2 / OD490 values, Well 3: L929 cell line", "method_in_brief": "(§1)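 Growth inhibition is measured by MTS conversion, read as absorbance at 490 nm after 2 h at 37 °C. Compounds act on cells seeded at 1000/well for 24 h across 0.5–100 µM final. Data derive from three independent duplicate experiments.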"}, "T24 cell line": {"tested_on": "T24 cell line", "assay": "Cytotoxicity MTS assay, T24 cell line", "assay_type": "cell-based", "conditions": "for OD490 Mean / OD490 Well 1 / OD490 Well 2 / OD490 Well 3: T24 cell line, first assay", "method_in_brief": "as §1"}}, "data": [{"smiles": "COC(=O)c1[nH]c(C2NC(=S)NC(C)=C2C(=O)c2ccccc2)c(C(=O)OC)c1C", "note": "(centres unmarked) [D14]", "values": [{"measurement": "OD490 values, Mean", "setting": "L929 cell line; 1μM, first assay", "result": 1.2798}, {"measurement": "OD490 values, Well 1", "setting": "L929 cell line; 1μM, first assay", "result": 1.2932}, {"measurement": "OD490 values, Well 2", "setting": "L929 cell line; 1μM, first assay", "result": 1.2928}, {"measurement": "OD490 values, Well 3", "setting": "L929 cell line; 1μM, first assay", "result": 1.2533}, {"measurement": "OD490 values, Mean", "setting": "L929 cell line; 1μM, second assay", "result": 1.4907}, {"measurement": "OD490 values, Well 1", "setting": "L929 cell line; 1μM, second assay", "result": 1.4325}, {"measurement": "OD490 values, Well 2", "setting": "L929 cell line; 1μM, second assay", "result": 1.3987}, {"measurement": "OD490 values, Well 3", "setting": "L929 cell line; 1μM, second assay", "result": 1.6410}, {"measurement": "OD490 values, Mean", "setting": "L929 cell line; 1μM, third assay", "result": 1.6023}, {"measurement": "OD490 values, Well 1", "setting": "L929 cell line; 1μM, third assay", "result": 1.5874}, {"measurement": "OD490 values, Well 2", "setting": "L929 cell line; 1μM, third assay", "result": 1.6622}, {"measurement": "OD490 values, Well 3", "setting": "L929 cell line; 1μM, third assay", "result": 1.5574}, {"measurement": "OD490 values, Mean", "setting": "L929 cell line; 1.5μM, first assay", "result": 1.2729}, {"measurement": "OD490 values, Well 1", "setting": "L929 cell line; 1.5μM, first assay", "result": 1.2563}, {"measurement": "OD490 values, Well 2", "setting": "L929 cell line; 1.5μM, first assay", "result": 1.3177}, {"measurement": "OD490 values, Well 3", "setting": "L929 cell line; 1.5μM, first assay", "result": 1.2448}, {"measurement": "OD490 values, Mean", "setting": "L929 cell line; 1.5μM, second assay", "result": 1.4657}, {"measurement": "OD490 values, Well 1", "setting": "L929 cell line; 1.5μM, second assay", "result": 1.4258}, {"measurement": "OD490 values, Well 2", "setting": "L929 cell line; 1.5μM, second assay", "result": 1.4302}, {"measurement": "OD490 values, Well 3", "setting": "L929 cell line; 1.5μM, second assay", "result": 1.5412}, {"measurement": "OD490 values, Mean", "setting": "L929 cell line; 1.5μM, third assay", "result": 1.5678}, {"measurement": "OD490 values, Well 1", "setting": "L929 cell line; 1.5μM, third assay", "result": 1.5254}, {"measurement": "OD490 values, Well 2", "setting": "L929 cell line; 1.5μM, third assay", "result": 1.5988}, {"measurement": "OD490 values, Well 3", "setting": "L929 cell line; 1.5μM, third assay", "result": 1.5793}, {"measurement": "OD490 values, Mean", "setting": "L929 cell line; 10μM, first assay", "result": 1.2551}, {"measurement": "OD490 values, Well 1", "setting": "L929 cell line; 10μM, first assay", "result": 1.2039}, {"measurement": "OD490 values, Well 2", "setting": "L929 cell line; 10μM, first assay", "result": 1.3650}, {"measurement": "OD490 values, Well 3", "setting": "L929 cell line; 10μM, first assay", "result": 1.1963}, {"measurement": "OD490 values, Mean", "setting": "L929 cell line; 10μM, second assay", "result": 1.4237}, {"measurement": "OD490 values, Well 1", "setting": "L929 cell line; 10μM, second assay", "result": 1.3365}, {"measurement": "OD490 values, Well 2", "setting": "L929 cell line; 10μM, second assay", "result": 1.5325}, {"measurement": "OD490 values, Well 3", "setting": "L929 cell line; 10μM, second assay", "result": 1.4022}, {"measurement": "OD490 values, Mean", "setting": "L929 cell line; 10μM, third assay", "result": 1.5660}, {"measurement": "OD490 values, Well 1", "setting": "L929 cell line; 10μM, third assay", "result": 1.5254}, {"measurement": "OD490 values, Well 2", "setting": "L929 cell line; 10μM, third assay", "result": 1.6200}, {"measurement": "OD490 values, Well 3", "setting": "L929 cell line; 10μM, third assay", "result": 1.5525}, {"measurement": "OD490 values, Mean", "setting": "L929 cell line; 25μM, first assay", "result": 1.1670}, {"measurement": "OD490 values, Well 1", "setting": "L929 cell line; 25μM, first assay", "result": 1.1764}, {"measurement": "OD490 values, Well 2", "setting": "L929 cell line; 25μM, first assay", "result": 1.2795}, {"measurement": "OD490 values, Well 3", "setting": "L929 cell line; 25μM, first assay", "result": 1.0451}, {"measurement": "OD490 values, Mean", "setting": "L929 cell line; 25μM, second assay", "result": 1.2993}, {"measurement": "OD490 values, Well 1", "setting": "L929 cell line; 25μM, second assay", "result": 1.3065}, {"measurement": "OD490 values, Well 2", "setting": "L929 cell line; 25μM, second assay", "result": 1.2547}, {"measurement": "OD490 values, Well 3", "setting": "L929 cell line; 25μM, second assay", "result": 1.3366}, {"measurement": "OD490 values, Mean", "setting": "L929 cell line; 25μM, third assay", "result": 1.5294}, {"measurement": "OD490 values, Well 1", "setting": "L929 cell line; 25μM, third assay", "result": 1.4424}, {"measurement": "OD490 values, Well 2", "setting": "L929 cell line; 25μM, third assay", "result": 1.5235}, {"measurement": "OD490 values, Well 3", "setting": "L929 cell line; 25μM, third assay", "result": 1.6222}, {"measurement": "OD490 values, Mean", "setting": "L929 cell line; 50μM, first assay", "result": 1.0826}, {"measurement": "OD490 values, Well 1", "setting": "L929 cell line; 50μM, first assay", "result": 0.8914}, {"measurement": "OD490 values, Well 2", "setting": "L929 cell line; 50μM, first assay", "result": 1.1616}, {"measurement": "OD490 values, Well 3", "setting": "L929 cell line; 50μM, first assay", "result": 1.1948}, {"measurement": "OD490 values, Mean", "setting": "L929 cell line; 50μM, second assay", "result": 1.1536}, {"measurement": "OD490 values, Well 1", "setting": "L929 cell line; 50μM, second assay", "result": 1.1241}, {"measurement": "OD490 values, Well 2", "setting": "L929 cell line; 50μM, second assay", "result": 1.2101}, {"measurement": "OD490 values, Well 3", "setting": "L929 cell line; 50μM, second assay", "result": 1.1265}, {"measurement": "OD490 values, Mean", "setting": "L929 cell line; 50μM, third assay", "result": 1.3855}, {"measurement": "OD490 values, Well 1", "setting": "L929 cell line; 50μM, third assay", "result": 1.3665}, {"measurement": "OD490 values, Well 2", "setting": "L929 cell line; 50μM, third assay", "result": 1.3874}, {"measurement": "OD490 values, Well 3", "setting": "L929 cell line; 50μM, third assay", "result": 1.4025}, {"measurement": "OD490 values, Mean", "setting": "L929 cell line; 100μM, first assay", "result": 1.0433}, {"measurement": "OD490 values, Well 1", "setting": "L929 cell line; 100μM, first assay", "result": 0.7506}, {"measurement": "OD490 values, Well 2", "setting": "L929 cell line; 100μM, first assay", "result": 1.0796}, {"measurement": "OD490 values, Well 3", "setting": "L929 cell line; 100μM, first assay", "result": 1.2998}, {"measurement": "OD490 values, Mean", "setting": "L929 cell line; 100μM, second assay", "result": 1.1143}, {"measurement": "OD490 values, Well 1", "setting": "L929 cell line; 100μM, second assay", "result": 1.1121}, {"measurement": "OD490 values, Well 2", "setting": "L929 cell line; 100μM, second assay", "result": 1.1285}, {"measurement": "OD490 values, Well 3", "setting": "L929 cell line; 100μM, second assay", "result": 1.1022}, {"measurement": "OD490 values, Mean", "setting": "L929 cell line; 100μM, third assay", "result": 1.3039}, {"measurement": "OD490 values, Well 1", "setting": "L929 cell line; 100μM, third assay", "result": 1.3251}, {"measurement": "OD490 values, Well 2", "setting": "L929 cell line; 100μM, third assay", "result": 1.3325}, {"measurement": "OD490 values, Well 3", "setting": "L929 cell line; 100μM, third assay", "result": 1.2542}, {"measurement": "IC50", "setting": "L929 cell line; MTS assay, 24 h exposure, ordinary fibroblast, not cancer cells", "result": 137, "unit": "µM"}, {"measurement": "IC50", "setting": "T24 cell line; MTS assay, 24 h exposure", "result": "> 150", "unit": "µM"}, {"measurement": "OD490 Mean", "setting": "T24 cell line; 0.5μM", "result": 1.1342}, {"measurement": "OD490 Well 1", "setting": "T24 cell line; 0.5μM", "result": 1.0996}, {"measurement": "OD490 Well 2", "setting": "T24 cell line; 0.5μM", "result": 1.1541}, {"measurement": "OD490 Well 3", "setting": "T24 cell line; 0.5μM", "result": 1.1489}, {"measurement": "OD490 Mean", "setting": "T24 cell line; 1μM", "result": 1.3301}, {"measurement": "OD490 Well 1", "setting": "T24 cell line; 1μM", "result": 1.2266}, {"measurement": "OD490 Well 2", "setting": "T24 cell line; 1μM", "result": 1.4478}, {"measurement": "OD490 Well 3", "setting": "T24 cell line; 1μM", "result": 1.3160}, {"measurement": "OD490 Mean", "setting": "T24 cell line; 10μM", "result": 1.2661}, {"measurement": "OD490 Well 1", "setting": "T24 cell line; 10μM", "result": 1.2502}, {"measurement": "OD490 Well 2", "setting": "T24 cell line; 10μM", "result": 1.2630}, {"measurement": "OD490 Well 3", "setting": "T24 cell line; 10μM", "result": 1.2850}, {"measurement": "OD490 Mean", "setting": "T24 cell line; 25μM", "result": 1.2456}, {"measurement": "OD490 Well 1", "setting": "T24 cell line; 25μM", "result": 1.2555}, {"measurement": "OD490 Well 2", "setting": "T24 cell line; 25μM", "result": 1.2167}, {"measurement": "OD490 Well 3", "setting": "T24 cell line; 25μM", "result": 1.2646}, {"measurement": "OD490 Mean", "setting": "T24 cell line; 50μM", "result": 1.2309}, {"measurement": "OD490 Well 1", "setting": "T24 cell line; 50μM", "result": 1.2932}, {"measurement": "OD490 Well 2", "setting": "T24 cell line; 50μM", "result": 1.1700}, {"measurement": "OD490 Well 3", "setting": "T24 cell line; 50μM", "result": 1.2295}, {"measurement": "OD490 Mean", "setting": "T24 cell line; 100μM", "result": 1.4227}, {"measurement": "OD490 Well 1", "setting": "T24 cell line; 100μM", "result": 1.3732}, {"measurement": "OD490 Well 2", "setting": "T24 cell line; 100μM", "result": 1.4320}, {"measurement": "OD490 Well 3", "setting": "T24 cell line; 100μM", "result": 1.4629}]}]}
